Entries after “also recorded” stand apart in the source; their conditions may differ.
Key:
Fmr1 KO mice [1] = experiment: Three-Chamber Social Interaction Test (TCSIT); format: in vivo, mouse
Protocol: (§1) Methods. The study was conducted in 10-week-old male Fmr1 KO mice. Animals were dosed per os with vehicle, R(−)-MDMA (8, 17 and 30 mg/kg) or SR-MDMA (8 mg/kg) with a minimum 3-day washout between doses. […] Compounds were administered 30 minutes prior to each behavioral test. Basic statistical analysis was performed. If more than 2 groups were compared with each other, significance was calculated by One-way or Two-way analysis of variance (ANOVA) followed by the Bonferroni post hoc test. In case of non-normally distributed data, significance was calculated by Kruskal-Wallis test followed by Dunn's multiple comparisons test.
To measure sociability, animals were tested in the Three Chamber Social Interaction Test. It consisted of a habituation phase, an approach phase and a recognition phase (FIG. 5).
On the testing day, the test animal was placed in the center of the box and was allowed to explore it for ten minutes with two empty stranger mouse cylinders on each side of the box for habituation.
Social approach: After habituation, the mouse was removed from the box, the box was cleaned with 70% Isopropanol and dried with a hand fan. A sex-matched stranger mouse was placed into the mouse cylinder in the left chamber and the test animal was placed in the center of the box again for ten minutes.
Social recognition: After the social approach, mice were immediately tested for social recognition. The already known mouse stayed in the left chamber and a new mouse was placed under the cylinder in the right chamber. The test mouse was again placed in the middle chamber and, for 10 minutes, it was measured how much time it spent in each chamber and how much time it spent sniffing each mouse. Healthy mice will spend more time with the new mouse due to novelty. Socially disturbed mice might not recognize the already known mouse and spend therefore similar amounts of time with each mouse.
Both social approach and social recognition were recorded and analyzed by using Noldus Ethovision 8.5.
(§2) Methods. The study was conducted in 96 10-week-old male Fmr1 KO mice. Animals were dosed orally with vehicle, R(−)-3,4-MDMA (8, 17 and 30 mg/kg), S-(+)-3,4-MDMA (8 mg/kg) or (±)-3,4-MDMA (8 mg/kg) with a minimum 3-day washout between doses. In the Three-Chamber Social Interaction Test (TCSIT), a stranger animal was placed in one of two wire cylinders in the testing area. The time spent in each of three arenas: the neutral arena, the stranger arena or the empty arena, was assessed (FIG. 5). Animals were evaluated in the Open Field Test (OFT) measuring hyperactivity, locomotor activity, thigmotaxis and grooming duration (FIGS. 7A-7B). In the Ultrasonic Vocalization (USV) test, male mice were exposed to fresh urine from females in the estrous cycle. Vocal emissions were recorded for 5 minutes and analyzed. Compounds were administered 30 minutes before each behavioral test. Significance was calculated by One-way analysis of variance followed by the Bonferroni post hoc test. In non-normally distributed data, Kruskal-Wallis test followed by Dunn's multiple comparisons test was applied.

Fmr1 KO mice [2] = experiment: Ultrasonic Vocalization (USV) test; format: in vivo, mouse; details: any dose, oral, 5 minutes recording, P<0.001
Protocol: as §1
Adult male mice emit Ultrasonic Vocalization (USV) under selected experimental conditions, upon encountering a sexually receptive female or female urine. These vocal emissions are considered an index of emotionality, social interest, and motivation.
To induce the estrous cycle in female mice, mice were subcutaneously treated with 50 μl of ß-estradiol 48 hours prior to testing (time sensitive). […]
On the test day, study animals were habituated in a separate soundproof room. Before recording, each mouse was separated from its home cage, placed in another cage that was covered with fresh bedding, and moved to the next soundproof room equipped with an UltraSoundGate Condenser Microphone (CM16; Avisoft Bioacoustics, Berlin, Germany), connected via an Avisoft UltraSoundGate 416 USB Audio device (Avisoft Bioacoustics) to a personal computer, where acoustic data were recorded with a sampling rate of 250,000 Hz in 16-bit format. […] Vocal emission was recorded for 5 minutes.
For acoustical analysis, recordings were transferred to SASLab Pro (Avisoft Bioacoustics) and a fast Fourier transform was conducted (512 FFT length, 100% frame, Hamming window, and 75% time window overlap). […] The total number of vocalizations and the latency to initiate the first call were extracted and evaluated for the whole 5 minutes of recording.
Methods. […] The time spent in each of three arenas: the neutral arena, the stranger arena or the empty arena, was assessed (FIG. 5). […]

Fmr1 KO mice [3] = experiment: Open Field Test (OFT) including grooming evaluation; format: in vivo, mouse
Protocol: as §1
Spontaneous activity and anxiety was assessed in the Open Field by evaluating the following parameters: hyperactivity [s], activity [s], distance [m], rearings [s], rearings [n] and grooming behavior. For that purpose, a Plexiglas Open Field (48×48 cm) in combination with a computerized video tracking system (Noldus Ethovision XT 14) was used (FIGS. 7A-7B).
The mice were brought to the room at least 45 minutes before the start of the testing. Each test session lasted for 5 minutes to check the mice's behavior in the new surroundings, as the first minutes of the Open Field test are the most suitable to display the exploration behavior of the animals. After the testing session, the number of fecal boluses was counted, as a measure of emotionality. The Open Field was cleaned with 70% Isopropanol after each mouse to get rid of odor traces. Testing was performed under standard room lighting conditions during the light phase of the circadian cycle.
as §2

dopamine = details: background, receptor studies and limited pre-clinical evidence; cited from earlier work
[4] = background, limited pre-clinical evidence; cited from earlier work
[5] = oral, 30 minutes before test, R compared to S or racemate P<0.001

Structure (SMILES)	Arena Frequency with the stranger (Fmr1 KO mice [1]; 8 mg/kg oral)	Interaction Duration with the stranger (Fmr1 KO mice [1]; 8 mg/kg oral)	Interaction Index with the stranger (Fmr1 KO mice [1]; 8 mg/kg oral)	interaction with the stranger and empty chamber vs. vehicle-treated animals (Fmr1 KO mice [1]; 8 mg/kg oral)	number of vocalizations (Fmr1 KO mice [2])	Arena Frequency with the stranger (Fmr1 KO mice [1]; 30 mg/kg oral, P<0.001)	interaction with the stranger and empty chamber vs. vehicle-treated animals (Fmr1 KO mice [1]; all three doses (8, 17 and 30 mg/kg) oral, P<0.01)	effect on social interaction compared with S-(+)-3,4-MDMA or (±)-3,4-MDMA (Fmr1 KO mice [1]; conclusion of the study)	social approach and interaction (Fmr1 KO mice [1]; male Fmr1 KO mice, oral 8, 17 and 30 mg/kg, 30 minutes before test)	number of grooming occasions (Fmr1 KO mice [3]; 30 mg/kg oral)	distance moved (Fmr1 KO mice [3]; [5])	hyperactivity (Fmr1 KO mice [3]; [5])	number of grooming occasions (Fmr1 KO mice [3]; oral, R 8, 17, 30 mg/kg, S and racemate 8 mg/kg)	efficacy as a releaser of dopamine (dopamine)	hyperthermia [4]
CNC(C)Cc1ccc2c(c1)OCO2 (racemic) [(±)-3,4-MDMA, S,R(±)-3,4-methylenedioxymethamphetamine]	no effect	no effect	no effect	efficacious only for interaction with the stranger	significantly reduced										
CN[C@H](C)Cc1ccc2c(c1)OCO2 [R(−)-3,4-MDMA, R(−)-3,4-methylenedioxymethamphetamine]					significantly reduced	statistically significant	significant difference	more potent	dose-dependently increased	active	significantly lesser effect	significantly lesser effect; also recorded: significantly reduced hyperactivity effects	less efficacious than S-(+)-3,4-MDMA or (±)-3,4-MDMA	low efficacy	does not produce hyperthermia
CN[C@@H](C)Cc1ccc2c(c1)OCO2 [S-(+)-3,4-MDMA]	no effect	no effect	no effect	not associated with significant changes	significantly reduced										

Reference: patent publication US20230310368A1, “MDMA ENANTIOMERS” (Mind Medicine, Inc., priority 2021, published 2023)
